Target: T1, recombinant human GST-Syk (Homo sapiens, UniProt P43405)
T1 construct: purchased Carna Biosciences 08-176
Experiment: Homogeneous Time-Resolved Fluorescence (HTRF) assay for the recombinant human Syk enzyme
Type: biochemical
Conditions: recombinant human GST-Syk 5 pM, ATP 25 μM, read-out: IC50
Protocol: Syk inhibition of the compounds of Formula (I) may be determined using the following assay protocol: Homogeneous Time-Resolved Fluorescence (HTRF) Assay for the Recombinant Human Syk Enzyme: A recombinant GST-hSyk fusion protein was used to measure potency of compounds to inhibit human Syk activity. […] Final volume of the reaction was 10 μL. Phosphorylation of the peptide was allowed to proceed for 45' at room temperature. To quench the reaction and detect the phosphorylated product, 2 nM of a Europium-anti-phosphotyrosine antibody (Perkin Elmer #AD0161) and 70 nM SA-APC (Perkin-Elmer #CR130-100) were added together in 15 mM Tris pH 7.5, 40 mM EDTA, 0.01% tween 20. Final volume of the quenching solution was 10 μL. The resulting HTRF signal was measured after 30 minutes on a EnVision (Perkin-Elmer) reader using a time-resolved fluorescence protocol.

IC50 | SMILES
1.9 nM | Cc1cc(Nc2cc(C(F)F)ccn2)nc(-c2ccc([C@](C)(O)[C@H]3CC[C@H](C(=O)OC(C)OC(=O)c4cnn(C)c4)CC3)nc2)c1 (stereo partly drawn) [Example 3-2, 1-[({Trans-4-[(1R)-1-(6-{[4-(difluoromethyl)pyridin-2-yl]amino}-4-methyl-2,3′-bipyridin-6′-yl)-1-hydroxyethyl]cyclohexyl}carbonyl)oxy]ethyl 1-methyl-1H-pyrazole-4-carboxylate]
2.3 nM | Cc1cc(Nc2cc(C(F)F)ccn2)nc(-c2ccc([C@](C)(O)[C@H]3CC[C@H](C(=O)OCOC(=O)C(C)(C)O)CC3)nc2)c1 [Example 3-3, [(2-Hydroxy-2-methylpropanoyl)oxy]methyl trans-4-[(1R)-1-(6-{[4-(difluoromethyl)pyridin-2-yl]amino}-4-methyl-2,3′-bipyridin-6′-yl)-1-hydroxyethyl]cyclohexanecarboxylate]
< 0.5 nM | Cc1cc(Nc2cc(C(F)F)ccn2)nc(-c2ccc([C@](C)(O)[C@H]3CC[C@H](C(=O)OCOC(=O)CO)CC3)nc2)c1 [Example 3-5, [(hydroxyacetyl)oxy] methyl trans-4-[(1R)-1-(6-{[4-(difluoromethyl)pyridin-2-yl]amino}-4-methyl-2,3′-bipyridin-6′-yl)-1-hydroxyethyl]cyclohexane carboxylate]
12.7 nM | CC(=O)N[C@@H](CC(C)C)C(=O)OCOC(=O)[C@H]1CC[C@H]([C@@](C)(O)c2ccc(-c3cc(C)cc(Nc4cc(C(F)F)ccn4)n3)cn2)CC1 [Example 3-7, [({trans-4-[(1R)-1-(6-{[4-(difluoromethyl)pyridin-2-yl]amino}-4-methyl-2,3′-bipyridin-6′-yl)-1-hydroxyethyl]cyclohexyl}carbonyl)oxy]methyl N-acetyl-L-leucinate]
8.3 nM | Cc1cc(Nc2cc(C(F)F)ccn2)nc(-c2ccc([C@](C)(O)[C@H]3CC[C@H](C(=O)OCOC(=O)c4cnn(C)c4)CC3)nc2)c1 [Example 3-8, [({trans-4-[(1R)-1-(6-{[4-(difluoromethyl)pyridin-2-yl]amino}-4-methyl-2,3′-bipyridin-6′-yl)-1-hydroxyethyl]cyclohexyl}carbonyl)oxy]methyl 1-methyl-1H-pyrazole-4-carboxylate]
2.4 nM | COCCOCCNC(=O)OCOC(=O)[C@H]1CC[C@H]([C@@](C)(O)c2ccc(-c3cc(C)cc(Nc4cc(C(F)F)ccn4)n3)cn2)CC1 [Example 4-3, 3-oxo-2,7,10-trioxa-4-azaundec-1-yl trans-4-[(1R)-1-(6-{[4-(difluoromethyl)pyridin-2-yl]amino}-4-methyl-2,3′-bipyridin-6′-yl)-1-hydroxyethyl]cyclohexanecarboxylate]
1.1 nM | CCCC[N+](CCCC)(CCCC)COC(=O)[C@H]1CC[C@H]([C@@](C)(O)c2ccc(-c3cc(C)cc(Nc4cc(C(F)F)ccn4)n3)cn2)CC1 [Example 5-4, N,N-dibutyl-N-{[({trans-4-[(1R)-1-(6-{[4-(difluoromethyl)pyridin-2-yl]amino}-4-methyl-2,3′-bipyridin-6′-yl)-1-hydroxyethyl]cyclohexyl}carbonyl)oxy]methyl}butan-1-aminium]
2.5 nM | CCCCCCCC[N+](CCCCCCCC)(CCCCCCCC)COC(=O)[C@H]1CC[C@H]([C@@](C)(O)c2ccc(-c3cc(C)cc(Nc4cc(C(F)F)ccn4)n3)cn2)CC1 [Example 5-8, N-{[({trans-4-[(1R)-1-(6-{[4-(difluoromethyl)pyridin-2-yl]amino}-4-methyl-2,3′-bipyridin-6′-yl)-1-hydroxyethyl]cyclohexyl}carbonyl)oxy]methyl}-N,N-dioctyloctan-1-aminium]
1.3 nM | Cc1cc(Nc2cc(C(F)F)ccn2)nc(-c2ccc([C@](C)(O)[C@H]3CC[C@H](C(=O)OC[N+]4(C)CCC(F)(F)CC4)CC3)nc2)c1 [Example 5-13, 1-{[({trans-4-[(1R)-1-(6-{[4-(difluoromethyl)pyridin-2-yl]amino}-4-methyl-2,3′-bipyridin-6′-yl)-1-hydroxyethyl]cyclohexyl}carbonyl)oxy]methyl}-4,4-difluoro-1-methylpiperidinium]

Reference: patent US20150299125A1, “PRODRUG BIPYRIDYLAMINOPYRIDINES AS SYK INHIBITORS” (MERCK SHARP & DOHME CORP., priority 2012, published 2015)
